Experimental data taken from patent publication EP0840727B1, “3-HYDROXY-2(1H)-[…] AGENTS” (priority 1995, dated 1997).
Marks after values point to notes of the source that are not given here.

What was measured:
[1] = ligand 30 µmol kg^-1 ip at 1 h after iv ^238Pu(IV) citrate, kill at 24 h, reported previously, cited from earlier work; for percent of injected ^238Pu at 24 h, excreta: feces and GI contents / percent of injected ^238Pu at 24 h, excreta: urine 0-24 h / percent of injected ^238Pu at 24 h, tissues: kidneys: pooled samples
Solubility in water = type: physicochemical; conditions: in words
[2] = Promoting excretion of 241Am(III) in mice by injected ligand; type: in vivo; conditions: Am(III), ligand 30 mmol.kg-1 i.p at 3 to 5 min after actinide i.v., kill at 24 h
Excerpt: (§1) Animal studies were completed using methods detailed in Radiation Protection Dosimetry, in press, P. W. Durbin et al., "In Vivo Chelation of Am(III), Pu(IV), Np(V) and U(VI) in Mice by TREN-(Me-3,2-HOPO)"; Radiation Protection Dosimetry, 17, No. 1, 1989, p. 351, P. W. Durbin et al., "Removal of ^238Pu(IV) from Mice by Polycatechoylate, -Hydroxamate or -Hydroxypyridinonate Ligands"; Radiation Research, 99, 1984, p. 85, P. W. Durbin et al., "Specific Sequestering Agents for the Actinides ..."; Radiation Research, 99, 1984, p. 106, P. W. Durbin et al., "Removal of Pu and Am from Beagles and Mice ..."; Radiation Research, 81, 1980, p. 170, R. D. Lloyd et al., and P. W. Durbin et al., "Specific Sequestering Agents for the Actinides ...". The foregoing articles are hereby incorporated by reference.
Radionuclides used in the animal studies came from a variety of sources. However, they can be purchased commercially. The ^238Pu(IV) citrate and ^241Am(III) citrate solutions were prepared for animal injection by 8- to 10-fold dilution with 0.14M NaCl (pH 4) of concentrated stock solutions (0.08M sodium citrate buffer) that had been held in frozen storage at Lawrence Berkeley Laboratory (hereinafter LBL) for several years. [The ^238Pu(IV) was originally obtained from D. R. Atherton at the University of Utah Radiobiology Laboratory, Salt Lake City. The ^241Am(III) solution had been obtained many years earlier from the LBL Actinide Chemistry group.]
(§2) One of the comparative chelating agents TREN-Me-3,2-HOPO, was also tested for effectiveness in promoting excretion of ^241Am(III), ^237Np(V), and ^232U(VI) by injection into mice, as follows: Mice, in groups of five, each received an intravenous injection of (a) 1100 Bq of ^241AM(III) in 0.2 mL of citrate buffer, (b) 150 Bq of ^232UO2Cl2 plus 3.6 mg of ^235UO2Cl2 in 0.2 mL of saline, or (c) 200 Bq of ^237NpO2Cl (7.5 mg of ^237NpO2Cl) in 0.2 mL of saline. Three to five minutes later, […] of TREN-Me-3,2-HOPO was injected intraperitoneally in 0.5 mL of saline. The mice were killed 24 hours after the actinide injection, frozen, and dissected after partial thawing. The skeleton, soft tissues, and separated excreta were radioanalyzed by counting the ^241Am gamma rays, or the alpha particles emitted by ^237Np or ^232U (and its ingrowing daughters). Removal of those actinides from mice by injected TREN-Me-3,2-HOPO is summarized in Table 5, which also includes data for mice similarly treated with CaNa3-DTPA and for actinide-injected controls. […] The structure of Am(III)-TREN-Me-3,2-HOPO is considered to resemble that of the Gd(III) complexes (see example 20). Complexation of the fraction of Np(V) that is reduced in vivo to Np(IV) is considered to resemble that of Pu(IV). Complexation of U(VI) is considered to take place through binding to UO2^2+.

[3] = Promoting excretion of 237Np(V) in mice by injected ligand; type: in vivo; conditions: Np(V), ligand 30 mmol.kg-1 i.p at 3 to 5 min after actinide i.v., kill at 24 h
Excerpt: as §1
The ^237Np(V) was obtained from J. Bucher of the LBL Actinide Chemistry group as NpO2Cl in 0.1 M HCl. It was diluted to the desired radioactivity concentration in 0.14M NaCl and the pH was adjusted to about 4.5 with NaOH just before use.
as §2

[4] = Promoting excretion of U(VI) in mice by injected ligand; type: in vivo; conditions: U(VI), ligand 30 mmol.kg-1 i.p at 3 to 5 min after actinide i.v., kill at 24 h
Excerpt: as §1
The ^232U was obtained from the Isotope Products Laboratory, Burbank, CA, and ^234,235U was obtained as U metal from long-held LBL storage. The two U sources were combined and dissolved in 6N HNO3, dried, and redissolved in 0.1 N HCl. The daughter radioactivities were removed by elution from a Dowex-50X4 column (22 cm length, 0.7 cm diameter, 1.5 mL·min^-1 flow rate) with 3.2N HCl. The U fractions (previously identified by a trial run with ^234,235U alone) were combined, dried, and redissolved in 0.14M NaCl at pH 5.5.
as §2

[5] = Fe(III) chelation; cited from earlier work

| Structure (SMILES) | percent of injected ^238Pu at 24 h, excreta: feces and GI contents [1] | percent of injected ^238Pu at 24 h, excreta: urine 0-24 h [1] | percent of injected ^238Pu at 24 h, tissues: kidneys [1] | percent of injected ^238Pu ± SD at 24 h, tissues: liver [1] | percent of injected ^238Pu ± SD at 24 h, tissues: skeleton [1] | percent of injected ^238Pu ± SD at 24 h, tissues: soft tissue [1] | percent of injected ^238Pu ± SD at 24 h, whole body [1] | further results |
| --- | --- | --- | --- | --- | --- | --- | --- | --- |
| O=C(NCCCN(CCCCN(CCCNC(=O)c1cccc(=O)n1O)C(=O)c1cccc(=O)n1O)C(=O)c1cccc(=O)n1O)c1cccc(=O)n1O [3,4,3-LI(1,2-HOPO)] | 57% of injected ^238Pu | 23% of injected ^238Pu | 0.2% of injected ^238Pu | 8.9 ± 1.7^d percent of injected ^238Pu | 7.5 ± 0.7^d percent of injected ^238Pu | 1.6 ± 0.6^d percent of injected ^238Pu | 18 ± 1.7^d percent of injected ^238Pu | – |
| O=C(NCCCCN(CCCNC(=O)c1cccc(=O)n1O)C(=O)c1cccc(=O)n1O)c1cccc(=O)n1O [3,4-LI(1,2-HOPO)] | 58% of injected ^238Pu | 7.9% of injected ^238Pu | 0.6% of injected ^238Pu | 18 ± 4.8% of injected ^238Pu | 9.9 ± 3.6% of injected ^238Pu | 5.8 ± 1.3% of injected ^238Pu | 34 ± 9.2% of injected ^238Pu | – |
| CCCNC(=O)c1ccn(C)c(=O)c1O [3-hydroxy-1-methyl-4(1-propylcarbamoyl)-2(1H)-pyridinone] | – | – | – | – | – | – | – | solubility in water (Solubility in water): very soluble in water |
| O=C([O-])CN(CCN(CC(=O)[O-])CC(=O)[O-])CCN(CC(=O)[O-])CC(=O)[O-].[Ca+2].[Na+].[Na+].[Na+] [CaNa3-DTPA, reference compound] | 5.1% of injected ^238Pu | 61% of injected ^238Pu | – | 17 ± 4.0% of injected ^238Pu | 12 ± 2.3% of injected ^238Pu | 3.5 ± 1.6% of injected ^238Pu | 33 ± 6.6% of injected ^238Pu | percent of injected actinide ± SD at 24 h, tissues: liver [2]: 13 ± 1.5^d percent of injected actinide; percent of injected actinide ± SD at 24 h, tissues: skeleton [2]: 8.5 ± 0.9^d percent of injected actinide; percent of injected actinide ± SD at 24 h, tissues: soft tissue [2]: 1.9 ± 0.3^d percent of injected actinide; percent of injected actinide ± SD at 24 h, whole body [2]: 24 ± 1.3^d percent of injected actinide; percent of injected actinide at 24 h, excreta: feces and GI contents ([2]; pooled): 8.0% of injected actinide; percent of injected actinide at 24 h, excreta: urine 0-24 h ([2]; pooled): 68% of injected actinide; percent of injected actinide at 24 h, tissues: kidneys ([2]; pooled): 0.4% of injected actinide; percent of injected actinide ± SD at 24 h, tissues: liver [3]: 14 ± 5.7% of injected actinide; percent of injected actinide ± SD at 24 h, tissues: skeleton [3]: 40 ± 4.4% of injected actinide; percent of injected actinide ± SD at 24 h, tissues: soft tissue [3]: 3.5 ± 0.9% of injected actinide; percent of injected actinide ± SD at 24 h, whole body [3]: 58 ± 8.0% of injected actinide; percent of injected actinide at 24 h, excreta: feces and GI contents ([3]; pooled): 1.5% of injected actinide; percent of injected actinide at 24 h, excreta: urine 0-24 h ([3]; pooled): 40% of injected actinide; percent of injected actinide at 24 h, tissues: kidneys ([3]; pooled): 1.3% of injected actinide; percent of injected actinide ± SD at 24 h, tissues: kidneys [4]: 17 ± 2.8% of injected actinide; percent of injected actinide ± SD at 24 h, tissues: skeleton [4]: 19 ± 3.0% of injected actinide; percent of injected actinide ± SD at 24 h, tissues: soft tissue [4]: 2.2 ± 0.1% of injected actinide; percent of injected actinide ± SD at 24 h, whole body [4]: 38 ± 0.7% of injected actinide; percent of injected actinide at 24 h, combined excreta ([4]; feces, GI contents and urine combined): 62^f percent of injected actinide; percent of injected actinide ± SD at 24 h, tissues: liver ([4]; livers of some groups pooled): 1.0^c percent of injected actinide |
| CC(=O)N(O)CCCCCNC(=O)CCC(=O)N(O)CCCCCNC(=O)CCC(=O)N(O)CCCCCN [DFO, desferrioxamine B] | 15.1% of injected ^238Pu | 38% of injected ^238Pu | 1.8% of injected ^238Pu | 19 ± 13% of injected ^238Pu | 20 ± 11% of injected ^238Pu | 4.5 ± 1.4% of injected ^238Pu | 45 ± 2.5% of injected ^238Pu | – |
| CC(=O)N(O)CCCCCNC(=O)CCC(=O)N(O)CCCCCNC(=O)CCC(=O)N(O)CCCCCNC(=O)c1cccc(=O)n1O [DFO-(1,2-HOPO)] | 46.7% of injected ^238Pu | 9.5% of injected ^238Pu | – | 5.1 ± 2.2^d percent of injected ^238Pu | 6.0 ± 0.5^d percent of injected ^238Pu | 2.3 ± 0.5^d percent of injected ^238Pu | 13 ± 2.9^d percent of injected ^238Pu | – |
| CC(=O)N(O)CCCCCNC(=O)CCC(=O)N(O)CCCCCNC(=O)CCC(=O)N(O)CCCCCNC(=O)c1ccn(C)c(=O)c1O [DFO-Me-3,2-HOPO] | 26.4% of injected ^238Pu | 21% of injected ^238Pu | 3.0% of injected ^238Pu | 13 ± 3.5% of injected ^238Pu | 17 ± 2.4% of injected ^238Pu | 19 ± 3.0% of injected ^238Pu | 53 ± 3.4% of injected ^238Pu | – |
| O=C(NCc1cc(CNC(=O)c2cccc(=O)n2O)cc(CNC(=O)c2cccc(=O)n2O)c1)c1cccc(=O)n1O [ME-(1,2-HOPO)] | 43% of injected ^238Pu | 9.6% of injected ^238Pu | 1.8% of injected ^238Pu | 18 ± 6.3^d percent of injected ^238Pu | 17 ± 2.5% of injected ^238Pu | 10 ± 1.8% of injected ^238Pu | 47 ± 9.4% of injected ^238Pu | – |
| O=C(N[C@H]1COC(=O)[C@@H](NC(=O)c2cccc(O)c2O)COC(=O)[C@@H](NC(=O)c2cccc(O)c2O)COC1=O)c1cccc(O)c1O [enterobacun] | – | – | – | – | – | – | – | formation constant Kf [5]: 10^49; pM [5]: 35.5 |
